Earlier results on one molecule are cited in patent US20080242731A1, “TOPICAL ANESTHESIA FORMULATION FOR BODILY CAVITIES” (T&A PHARMA PTY. LIMITED, priority 2003, published 2008).

For this data set the following is noted: maintained at pH 7, low concentration, within 4 weeks.

On to `CCN(CC)CC(=O)Nc1c(C)cccc1C` [lignocaine, Lignocaine], for which the degradation is recorded as 35%.
